Calls of active or inactive are those of the source. No cut-off for these calls is given here.
Assays:
[1] = biological target: Histone deacetylase; experiment: Inhibition of HDAC in human A2780 cells using Boc-Lys (acetyl)-AMC as substrate preincubated for 18 hrs followed by susbtrate addition and measured after 3 hrs by fluorescence microplate reader assay; format: cell-based
[2] = biological target: Histone deacetylase; experiment: Inhibition of HDAC in human CAL-27 cells using Boc-Lys (acetyl)-AMC as substrate preincubated for 18 hrs followed by susbtrate addition and measured after 3 hrs by fluorescence microplate reader assay; format: cell-based
[3] = tested on: A2780; experiment: Antiproliferative activity against human A2780 cells assessed as reduction in cell viability after 72 hrs by MTT assay; format: functional, cell-based; settings: A2780, 72 h
[4] = tested on: CAL-27; experiment: Antiproliferative activity against human CAL-27 cells assessed as reduction in cell viability after 72 hrs by MTT assay; format: functional, cell-based; settings: CAL-27, 72 h
[5] = biological target: T1, Histone deacetylase (Homo sapiens) (UniProt Q13547+O15379+Q9UBN7+Q92769+Q9UQL6+Q8WUI4+Q9BY41+Q96DB2+P56524+Q9UKV0+Q969S8); experiment: Inhibition of HDAC in human Cal27CisR cells assessed as potentiation of cisplatin-induced cytotoxicity by measuring cisplatin IC50 at 3 to 4 uM pretreated for 48 hrs followed by cisplatin addition and measured after 72 hrs by MTT assay relative to cisplatin alone; format: cell-based; settings: dose 3-4 µM, time 120.0 hrs
[6] = biological target: T1, Histone deacetylase (Homo sapiens); experiment: Inhibition of HDAC in human CAL-27 cells assessed as potentiation of cisplatin-induced cytotoxicity by measuring cisplatin IC50 at 3 to 4 uM pretreated for 48 hrs followed by cisplatin addition and measured after 72 hrs by MTT assay relative to cisplatin alone; format: cell-based; settings: dose 3-4 µM, time 120.0 hrs
[7] = biological target: Histone deacetylase 2 (Homo sapiens, UniProt Q92769); experiment: Inhibition of recombinant human full length C-terminal GST-fusion tagged HDAC2 expressed in baculovirus infected insect cells using Boc-Lys(Ac)-AMC as substrate preincubated for 5 mins followed by substrate addition measured after 90 mins by fluorimetry; format: cell-based
[8] = biological target: T2, Histone deacetylase 8 (Homo sapiens, UniProt Q9BY41); experiment: Inhibition of recombinant human C-terminal His-fusion tagged/N-terminal Strep2 tagged HDAC8 (1 to 377 residues) expressed in insect cells using Boc-Lys(TFA)-AMC as substrate preincubated for 5 mins followed by substrate addition measured after 90 mins by fluorimetry
T2 sequence (Q9BY41 whole entry): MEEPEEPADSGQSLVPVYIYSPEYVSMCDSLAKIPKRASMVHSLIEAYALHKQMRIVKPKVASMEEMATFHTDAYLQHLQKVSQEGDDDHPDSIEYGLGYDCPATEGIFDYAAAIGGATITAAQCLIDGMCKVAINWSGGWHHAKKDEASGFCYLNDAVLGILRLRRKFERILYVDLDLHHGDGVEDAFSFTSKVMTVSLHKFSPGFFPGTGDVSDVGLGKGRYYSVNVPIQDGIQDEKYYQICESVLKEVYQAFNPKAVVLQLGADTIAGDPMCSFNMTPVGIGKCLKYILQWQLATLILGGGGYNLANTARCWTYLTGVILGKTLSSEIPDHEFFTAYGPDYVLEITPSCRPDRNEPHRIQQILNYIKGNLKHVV

[9] = biological target: Histone deacetylase; experiment: Inhibition of HDAC in human Cal27CisR cells assessed as potentiation of cisplatin-induced cytotoxicity by measuring cisplatin IC50 at 3 to 4 uM pretreated for 48 hrs followed by cisplatin addition and measured after 72 hrs by MTT assay (reference value: 3.57 uM); format: cell-based
[10] = biological target: Histone deacetylase; experiment: Inhibition of HDAC in human CAL-27 cells assessed as potentiation of cisplatin-induced cytotoxicity by measuring cisplatin IC50 at 3 to 4 uM pretreated for 48 hrs followed by cisplatin addition and measured after 72 hrs by MTT assay (reference value: 3.57 uM); format: cell-based
[11] = biological target: T3, Protein deacetylase HDAC6 (Homo sapiens, UniProt Q9UBN7); experiment: Inhibition of recombinant human N-terminal GST-tagged HDAC6 (1 to 1215 residues) expressed in baculovirus infected insect cells using Boc-Lys(Ac)-AMC as substrate preincubated for 5 mins followed by substrate addition measured after 90 mins by fluorimetry
T3 sequence (Q9UBN7 whole entry): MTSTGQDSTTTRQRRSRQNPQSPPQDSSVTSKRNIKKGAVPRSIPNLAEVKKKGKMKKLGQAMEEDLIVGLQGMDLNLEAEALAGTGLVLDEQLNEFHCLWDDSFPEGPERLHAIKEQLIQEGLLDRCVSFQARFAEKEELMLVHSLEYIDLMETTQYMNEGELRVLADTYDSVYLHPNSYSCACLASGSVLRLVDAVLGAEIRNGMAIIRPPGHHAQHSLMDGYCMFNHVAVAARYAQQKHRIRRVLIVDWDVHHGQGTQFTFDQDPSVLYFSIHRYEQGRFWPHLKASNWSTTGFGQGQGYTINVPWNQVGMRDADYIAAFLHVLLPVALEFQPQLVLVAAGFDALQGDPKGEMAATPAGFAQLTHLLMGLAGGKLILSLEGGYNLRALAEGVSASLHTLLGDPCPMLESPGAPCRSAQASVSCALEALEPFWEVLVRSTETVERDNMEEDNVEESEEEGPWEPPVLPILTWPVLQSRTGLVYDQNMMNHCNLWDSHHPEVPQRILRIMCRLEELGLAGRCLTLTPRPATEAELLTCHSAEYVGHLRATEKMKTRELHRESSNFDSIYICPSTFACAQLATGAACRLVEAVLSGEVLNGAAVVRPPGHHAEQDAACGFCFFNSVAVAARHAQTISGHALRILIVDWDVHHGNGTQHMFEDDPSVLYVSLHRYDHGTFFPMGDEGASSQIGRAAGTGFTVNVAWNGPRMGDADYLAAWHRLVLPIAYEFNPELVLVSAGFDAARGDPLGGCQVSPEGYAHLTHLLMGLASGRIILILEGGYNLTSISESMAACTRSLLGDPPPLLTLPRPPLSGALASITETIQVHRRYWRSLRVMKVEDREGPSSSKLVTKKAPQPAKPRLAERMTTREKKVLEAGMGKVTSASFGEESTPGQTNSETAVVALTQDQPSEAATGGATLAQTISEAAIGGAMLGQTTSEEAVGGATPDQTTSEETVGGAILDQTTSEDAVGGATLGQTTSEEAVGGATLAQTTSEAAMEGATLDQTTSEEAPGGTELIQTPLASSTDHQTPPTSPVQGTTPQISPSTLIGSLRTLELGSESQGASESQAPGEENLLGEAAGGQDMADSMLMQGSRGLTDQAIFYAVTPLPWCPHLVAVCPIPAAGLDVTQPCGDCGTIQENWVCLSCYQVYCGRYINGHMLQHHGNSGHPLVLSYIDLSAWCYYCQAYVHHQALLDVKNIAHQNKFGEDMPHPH

[12] = biological target: Histone deacetylase 4 (Homo sapiens, UniProt P56524); experiment: Inhibition of recombinant human N-terminal GST-fusion tagged/C-terminal GST-tagged HDAC4 (627 to 1084 residues) expressed in baculovirus infected insect cells using Boc-Lys(TFA)-AMC as substrate preincubated for 5 mins followed by substrate addition measured after 90 mins by fluorimetry
[13] = biological target: T4, Protein deacetylase HDAC6 (Homo sapiens) (UniProt Q9UBN7); experiment: Inhibition of HDAC6 in human CAL-27 cells assessed as accumulation of acetylated alpha-tubulin at 1 uM for 24 hrs by Western blot analysis; format: cell-based
T4 sequence (whole entry): T3 sequence (Q9UBN7 whole entry)

[14] = Inhibition of Class 1/2b HDAC in human HL-60 cells by HDAC-Glo assay; format: cell-based
[15] = tested on: HL-60; experiment: Antiproliferative activity against human HL-60 cells assessed as reduction in cell viability for 72 hrs by Celltitre-Glo luminescent assay; format: functional, cell-based; settings: HL-60, 72 h
[16] = biological target: T1, Histone deacetylase (Homo sapiens); experiment: Inhibition of HDAC in human Cal27CisR cells assessed as potentiation of cisplatin-induced cytotoxicity by measuring fold reduction in cisplatin IC50 at 0.3 to 0.5 uM pretreated for 48 hrs followed by cisplatin addition and measured after 72 hrs by MTT assay relative to cisplatin alone; format: cell-based; settings: dose 0.3-0.5 µM, time 120.0 hrs
[17] = biological target: T4, Protein deacetylase HDAC6 (Homo sapiens); experiment: Inhibition of HDAC6 in human CAL-27 cells assessed as accumulation of acetylated alpha-tubulin at 5 uM for 24 hrs by Western blot analysis; format: cell-based
[18] = biological target: Histone deacetylase; experiment: Inhibition of HDAC in human Cal27CisR cells assessed as potentiation of cisplatin-induced cytotoxicity by measuring cisplatin IC50 at 0.3 to 0.5 uM pretreated for 48 hrs followed by cisplatin addition and measured after 72 hrs by MTT assay (reference value: 3.57 uM); format: cell-based
[19] = biological target: T1, Histone deacetylase (Homo sapiens); experiment: Inhibition of HDAC in human CAL-27 cells assessed as potentiation of cisplatin-induced cytotoxicity by measuring fold reduction in cisplatin IC50 at 0.3 to 0.5 uM pretreated for 48 hrs followed by cisplatin addition and measured after 72 hrs by MTT assay relative to cisplatin alone; format: cell-based; settings: dose 0.3-0.5 µM, time 120.0 hrs
[20] = biological target: Histone deacetylase; experiment: Inhibition of HDAC in human CAL-27 cells assessed as potentiation of cisplatin-induced cytotoxicity by measuring cisplatin IC50 at 0.3 to 0.5 uM pretreated for 48 hrs followed by cisplatin addition and measured after 72 hrs by MTT assay (reference value: 3.57 uM); format: cell-based

Chain of Histone deacetylase 4 (P56524 whole entry, the tested form may be a part): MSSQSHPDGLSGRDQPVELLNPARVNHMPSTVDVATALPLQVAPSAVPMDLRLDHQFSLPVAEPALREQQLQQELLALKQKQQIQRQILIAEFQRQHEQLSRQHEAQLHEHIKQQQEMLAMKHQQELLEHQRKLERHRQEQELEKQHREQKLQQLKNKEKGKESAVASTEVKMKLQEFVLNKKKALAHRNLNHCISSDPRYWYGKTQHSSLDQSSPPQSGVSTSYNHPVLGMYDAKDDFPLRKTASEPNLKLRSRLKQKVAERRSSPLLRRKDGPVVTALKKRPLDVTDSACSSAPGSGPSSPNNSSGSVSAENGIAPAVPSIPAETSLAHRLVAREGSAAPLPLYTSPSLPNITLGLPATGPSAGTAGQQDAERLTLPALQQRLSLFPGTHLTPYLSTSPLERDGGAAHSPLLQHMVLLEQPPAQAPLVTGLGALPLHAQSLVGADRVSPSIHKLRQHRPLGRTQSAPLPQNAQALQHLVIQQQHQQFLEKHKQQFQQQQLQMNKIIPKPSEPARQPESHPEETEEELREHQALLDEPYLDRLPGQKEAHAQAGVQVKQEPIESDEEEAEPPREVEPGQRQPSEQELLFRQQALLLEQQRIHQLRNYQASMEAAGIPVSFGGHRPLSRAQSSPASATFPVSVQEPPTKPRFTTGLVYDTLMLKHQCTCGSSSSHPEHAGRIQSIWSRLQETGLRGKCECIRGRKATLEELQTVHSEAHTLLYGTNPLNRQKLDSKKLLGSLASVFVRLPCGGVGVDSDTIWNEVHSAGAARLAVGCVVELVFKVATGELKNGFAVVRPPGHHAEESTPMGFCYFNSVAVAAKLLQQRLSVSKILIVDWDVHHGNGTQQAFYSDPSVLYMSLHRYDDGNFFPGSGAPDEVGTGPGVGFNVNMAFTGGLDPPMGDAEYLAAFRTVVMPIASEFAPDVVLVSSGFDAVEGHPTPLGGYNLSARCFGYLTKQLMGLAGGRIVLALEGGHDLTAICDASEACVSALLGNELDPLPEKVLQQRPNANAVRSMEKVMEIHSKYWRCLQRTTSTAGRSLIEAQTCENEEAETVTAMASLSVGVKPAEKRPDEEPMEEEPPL
Chain of Histone deacetylase 2 (Q92769 whole entry, the tested form may be a part): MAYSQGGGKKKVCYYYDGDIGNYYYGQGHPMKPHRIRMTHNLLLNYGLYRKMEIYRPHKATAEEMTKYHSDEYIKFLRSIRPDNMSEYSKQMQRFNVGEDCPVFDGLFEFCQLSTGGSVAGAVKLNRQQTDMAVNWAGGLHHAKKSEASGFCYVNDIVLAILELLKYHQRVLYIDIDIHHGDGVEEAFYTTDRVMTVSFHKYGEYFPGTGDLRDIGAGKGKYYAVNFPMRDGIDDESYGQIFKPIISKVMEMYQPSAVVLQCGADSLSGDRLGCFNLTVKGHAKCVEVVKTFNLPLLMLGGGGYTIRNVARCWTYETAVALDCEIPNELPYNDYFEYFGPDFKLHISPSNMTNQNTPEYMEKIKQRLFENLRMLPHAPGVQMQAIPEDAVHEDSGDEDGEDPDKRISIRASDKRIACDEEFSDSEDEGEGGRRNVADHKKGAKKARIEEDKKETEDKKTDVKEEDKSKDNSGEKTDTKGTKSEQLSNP

IC50 [1]	IC50 [2]	IC50 [3]	SMILES	IC50 [4]	other results
1710 nM	1990 nM	5560 nM	O=C(CCCCCONC(=O)c1cc2ccccc2o1)NO	780 nM	
1360 nM	810 nM	7800 nM	O=C(CCCCCONC(=O)c1c[nH]c2ccccc12)NO	1700 nM	
710 nM	430 nM	7600 nM	O=C(CCCCCONC(=O)c1[nH]nc2ccccc12)NO	1800 nM	
1580 nM	2250 nM	4880 nM	O=C(CCCCCONC(=O)c1cc2ccccc2s1)NO	500 nM	
600 nM	400 nM	11300 nM	O=C(CCCCCONC(=O)c1ccc2cc[nH]c2c1)NO	4300 nM	
850 nM	450 nM	7500 nM	O=C(CCCCCONC(=O)c1ccc2[nH]ccc2c1)NO	1300 nM	

Further lines, the molecule ahead of its results:

SMILES	IC50 [1]	IC50 [2]	IC50 [3]	IC50 [4]	other results
O=C(CCCCCONC(=O)c1cccc2cc[nH]c12)NO	640 nM	460 nM	1000 nM	1000 nM	
O=C(CCCCCONC(=O)c1cnc2ccccc2n1)NO	190 nM	490 nM	7700 nM	800 nM	Ratio IC50 [5]: 2.6; Ratio IC50 [6]: 1.23; IC50 [7]: 44 nM; IC50 [8]: 7950 nM; IC50 [9]: 18700 nM; IC50 [10]: 2900 nM; IC50 [11]: 18 nM; IC50 [12]: 60800 nM
O=C(CCCCCONC(=O)c1nc2ccccc2s1)NO	2700 nM	3160 nM	21800 nM	6330 nM	
Nc1ccccc1NC(=O)c1ccc(CNC(=O)OCc2cccnc2)cc1					inhibition [13]: inactive
O=C(CCCCCONC(=O)c1cccc2ccccc12)NO	2390 nM	1890 nM	7600 nM	4200 nM	
O=C(CCCCCONC(=O)c1nc2ccccc2[nH]1)NO	9080 nM	4170 nM	> 100000 nM	58200 nM	
O=C(CCCCCCNC(=O)c1cnc(N(c2ccccc2)c2ccccc2)nc1)NO [RICOLINOSTAT]					IC50 [14]: 902 nM; IC50 [15]: > 10000 nM
O=C(CCCCCONC(=O)c1ccnc2ccccc12)NO	7680 nM	5970 nM	70000 nM	11900 nM	
O=C(CCCCCONC(=O)c1ccc2ccccc2c1)NO	350 nM	100 nM	1000 nM	180 nM	IC50 [7]: 41 nM; IC50 [8]: 3790 nM; Ratio IC50 [16]: 5.09; inhibition [17]: Active; IC50 [11]: 11 nM; IC50 [18]: 9530 nM; IC50 [12]: 51800 nM; Ratio IC50 [19]: 1.54; IC50 [20]: 2320 nM
O=C(CCCCCONC(=O)Cc1ccc2ccccc2c1)NO	3710 nM	1720 nM	6280 nM	3570 nM	
O=C(CCCCCONC(=O)c1cccc2[nH]ccc12)NO	740 nM	480 nM	5300 nM	1200 nM	
CC(C)(C)OC(=O)Nc1ccc(-c2cc(C(=O)NCCCCCCC(=O)NO)no2)cc1					IC50 [14]: 109 nM; IC50 [15]: 594 nM

Source: ChEMBL document CHEMBL4823243, “Synergistic induction of apoptosis in resistant head and neck carcinoma and leukemia by alkoxyamide-based histone deacetylase inhibitors” (Eur J Med Chem, 2021)
